# Measured values: US20220380801A1, “TRIPARTITE SYSTEMS FOR PROTEIN DIMERIZATION AND METHODS OF USE” (priority 2019, published 2022)
# Tested on: IL-2 production by split CAR-expressing Jurkat cells
# Experiment: Split chimeric antigen receptor activation assay
# Type: cell-based
# Description: A chimeric antigen receptor (CAR), a synthetic, genetically engineered version of a T-cell receptor, can direct the activation of immune cells in response to user-defined targets via target-specific recognition domains, e.g. a single chain variable antibody fragment (scFv). These multi-domain, synthetic proteins are typically constructed by fusion of the target recognition domain to a transmembrane domain, T-cell receptor co-stimulatory domain and a C-terminal CD3 zeta cytoplasmic activation domain. A split-CAR can be generated by expressing the target recognition/transmembrane/co-stimulatory domain and the CD3 zeta activation domain as two separate proteins. […]
# Lentiviral particles encoding each split CAR were generated using the pPACKH1 HIV lentivector packaging kit (Systems Bioscience), according to the manufacturer's protocol. […] Split CAR-transduced Jurkat cell pools were FACS-sorted based on GFP fluorescence to achieve equivalent expression levels for both the FKBP12:FRB and HCV NS3/4A PR (S139A):PRSIM_23 CARs before functional testing. Activation of the split-CAR-expressing Jurkat cells can be measured by interleukin-2 (IL-2) production after stimulation of the CAR (Smith-Garvin, Koretzky, and Jordan 2009). […]
smiles,measurement,setting,value
COc1ccc2c(O[C@@H]3C[C@H]4C(=O)N[C@]5(C(=O)NS(=O)(=O)C6CC6)C[C@H]5/C=C\CCCCN(C)C(=O)[C@@H]4C3)cc(-c3nc(C(C)C)cs3)nc2c1C [simeprevir],activation of CAR-expressing Jurkat cells (IL-2 production),co-culture with antigen-negative A375 cells,no activation
same,activation of CAR-expressing Jurkat cells (IL-2 production),co-culture with antigen-positive HepG2 cells,dose-dependent activation
